Here are results for 42 compounds from patent publication US20250066328A1, “PARP7 INHIBITORS” (Gilead Sciences, Inc., priority 2023, published 2025).

The structures appear in SMILES notation.

This assay has as its system STAT1 (phosphorylated at Tyr701) in NCI-H1373 cells. Kind of assay: Phospho-STAT1 (Tyr701) LANCE Ultra TR-FRET detection assay in NCI-H1373 cells. It counts as cell-based. As to conditions: Homo sapiens, NCI-H1373, 48 h, 48 hours incubation, induction of pSTAT1, normalized to 10 uM positive control and DMSO, 4-parameter fit, read-out: NH1373 pSTAT1 EC50. The procedure: Phospho-STAT1 (Tyr701 LANCE Ultra TR-FRET Detection Assay
LANCE Ultra phospho-STAT1 (Tyr701) kits are designed for the detection of phosphorylated STAT1 in cell lysates using a simple, homogeneous LANCE Ultra sandwich assay (Cat. #TRF4028M). This assay is intended for assessing compound induction of endogenous levels of cellular STAT1 (phosphorylated at Tyr701) in NCI-H1373 cells. The NCI-H1373 cells are cultured in RPMI 1640 media containing 10% heat inactivated FBS, GlutaMAX, 1% Penicillin-Streptomycin. An Echo acoustic liquid handler is used to transfer 60 nanoliters of compound dilutions using the Echo Qualified, 384-well polypropylene microplate clear flat bottom source plates into a Greiner (#781080) cell culture microplate. NCI-H1373 cells are seeded into these compound-spotted culture plates at 30,000 cells/well in a 60 uL volume in growth media. The plates are incubated in a 5% CO2 humidified incubator at 37° C. for 48 hours. […] Briefly, […] of supplemented lysis buffer is added to each well and allowed to shake for 1 hour at 400 rpm. Next, 5 ul of remixed antibody solutions (vol/vol) prepared in detection buffer are added to each well and allowed to incubate at room temperature overnight. After spinning the plate down at 300 rpm for 1 min, the plate is read on an EnVision plate reader set up for Eu^3+ Cryptate and fluorescence emission is measured at two different wavelengths (665 nm and 620 nm). The HTRF ratio is then calculated ([…]) for each well to determine the amount of pSTAT1 in the cell lysate, and the data is then normalized to 10 uM (S)-5-((1-(3-oxo-3-(4-(5-(trifluoromethyl)pyrimidin-2-yl)piperazin-1-yl)propoxy)propan-2-yl)amino)-4-(trifluoromethyl)pyridazin-3(2H)-one positive and DMSO negative controls. The values were then plotted as a function of compound concentration and a 4-parameter fit was applied to derive the EC50 values.
Regarding `CC[C@@H](C[C@@H](F)Cn1ccc2cc(-c3ncc(C(F)(F)F)cn3)c(F)cc2c1=O)Nc1cn[nH]c(=O)c1C(F)(F)F` [Example 118, 7-fluoro-2-((2R,4S)-2-fluoro-4-((6-oxo-5-(trifluoromethyl)-1,6-dihydropyridazin-4-yl)amino)hexyl)-6-(5-(trifluoromethyl)pyrimidin-2-yl)isoquinolin-1(2H)-one], the EC50 came to 2.18 nM.
Under `COc1cnc(-c2cc3ccn(C[C@H](F)C[C@H](C)Nc4cn[nH]c(=O)c4C(F)(F)F)c(=O)c3c(F)c2F)nc1` [Example 99] stands 1.06 nM; under `C[C@@H](C[C@@H](F)CN1Cc2cc(-c3ncc(C(F)(F)F)cn3)c(F)cc2C1=O)Nc1cn[nH]c(=O)c1C(F)(F)F` [Example 117, 6-fluoro-2-[(2R,4S)-2-fluoro-4-[[6-oxo-5-(trifluoromethyl)-1H-pyridazin-4-yl]amino]pentyl]-5-[5-(trifluoromethyl)pyrimidin-2-yl]isoindolin-1-one], 11.8 nM; under `C[C@@H](C[C@@H](F)Cn1cc(F)c2cc(-c3ncc(C(C)(C)O)cn3)c(F)cc2c1=O)Nc1cn[nH]c(=O)c1C(F)(F)F` [Example 26], 3.84 nM.
Under `O=c1[nH]ncc(N[C@@H](CO)C[C@@H](F)Cn2ccc3cc(-c4ncc(Cl)cn4)c(F)cc3c2=O)c1C(F)(F)F` [Example 124] stands 11.1 nM; under `C[C@@H](C[C@H](F)Cn1cc(F)c2cc(-c3ncc(C(F)F)cn3)c(F)cc2c1=O)Oc1cn[nH]c(=O)c1C(F)(F)F` [Example 62], 1.69 nM.
As to `C[C@@H](C[C@H](F)Cn1ccc2cc(-c3ncc(C(F)F)cn3)c(F)cc2c1=O)Nc1cn[nH]c(=O)c1C(F)(F)F` (single isomer, unassigned) [Example 5], the concentration giving a half-maximal response (EC50) amounted to 47.6 nM.
On to `C[C@@H](C[C@@H](O)Cn1ccc2cc(-c3ncc(C(F)F)cn3)c(F)cc2c1=O)Oc1cn[nH]c(=O)c1C(F)(F)F` (single isomer, unassigned) [Example 19], for which the EC50 was 1.28 nM.
Take `C[C@@H](C[C@@H](F)Cn1ccc2cc(-c3ncc(C(F)F)c(N)n3)c(F)c(F)c2c1=O)Oc1cn[nH]c(=O)c1C(F)(F)F` [Example 42]: the EC50 is 0.836 nM.
Then `C[C@@H](C[C@@H](F)Cn1ccc2cc(-c3ncc(C(F)F)cn3)c(F)c(F)c2c1=O)Oc1cn[nH]c(=O)c1C(F)(F)F` [Example 50], with 0.46 nM; and `[2H]C([2H])([2H])Oc1cnc(-c2cc3ccn(C[C@H](F)C[C@H](C)Nc4cn[nH]c(=O)c4C(F)(F)F)c(=O)c3cc2F)nc1` [Example 27], with 1.05 nM.
For the compound `CC(C)(O)c1cnc(-c2cc3ccn(CCC[C@H](COC(F)F)Oc4cn[nH]c(=O)c4C(F)(F)F)c(=O)c3cc2F)nc1` (single isomer, unassigned) [Example 35], the EC50 came out at 20.5 nM.
Then `C[C@@H](C[C@H](F)Cn1ccc2cc(-c3ncc(C(F)F)c(N)n3)c(F)cc2c1=O)Oc1cn[nH]c(=O)c1C(F)(F)F` (single isomer, unassigned) [Example 15], with 0.786 nM.
Then `COc1cnc(-c2cc3ccn(C[C@H](F)C[C@H](C)Oc4cn[nH]c(=O)c4C(F)(F)F)c(=O)c3c(F)c2F)nc1` [Example 44], with 0.375 nM; and `O=c1[nH]ncc(O[C@@H](CCCn2ccc3cc(-c4ncc(C(F)(F)F)cn4)c(F)cc3c2=O)COC(F)F)c1C(F)(F)F` [Example 120], with 1000 nM.
In the case of `CC(C)(O)c1cnc(-c2cc3ccn(CC(F)CC(COC(F)F)Nc4cn[nH]c(=O)c4C(F)(F)F)c(=O)c3cc2F)nc1` (stereo not drawn) [Example 129], the EC50 was 8.24 nM.
Under `C[C@@H](C[C@@H](F)Cn1ccc2cc(-c3ncc(C(F)F)cn3)c(F)c(F)c2c1=O)Nc1cn[nH]c(=O)c1C(F)(F)F` [Example 100] stands 1.05 nM; under `C[C@@H](C[C@@H](F)Cn1cc(F)c2cc(-c3ncc(C(F)(F)F)cn3)c(F)cc2c1=O)Oc1cn[nH]c(=O)c1C(F)(F)F` [Example 55], 135 nM.
Then `C[C@@H](CC(F)Cn1ccc2cc(-c3ncc(C(C)(C)O)cn3)c(F)cc2c1=O)Oc1cn[nH]c(=O)c1C(F)(F)F` (stereo partly drawn) [Example 37], with 4.11 nM; and `C[C@@H](C[C@@H](F)Cn1ccc2cc(-c3ncc4c(n3)COC4(C)C)c(F)cc2c1=O)Nc1cn[nH]c(=O)c1C(F)(F)F` [Example 90], with 4.33 nM.
Take `C[C@@H](C[C@@H](F)Cn1ccc2cc(-c3ncc([C@](C)(O)C(F)F)cn3)c(F)cc2c1=O)Nc1cn[nH]c(=O)c1C(F)(F)F` [Example 87]: the EC50 was 5.36 nM.
`C[C@@H](C[C@@H](F)Cn1ccc2cc(-c3cc4c(cn3)C(F)(F)CC4)c(F)cc2c1=O)Nc1cn[nH]c(=O)c1C(F)(F)F` [Example 91]: the EC50 stood at 1.69 nM.
Under `C[C@@H](CC(O)Cn1ccc2cc(-c3ncc(C(F)(F)F)cn3)c(F)cc2c1=O)Oc1cn[nH]c(=O)c1C(F)(F)F` (stereo partly drawn) [Example 16] stands 1.12 nM.
Under `COc1cnc(-c2cc3ccn(C[C@H](F)C[C@H](C)Oc4cn[nH]c(=O)c4C(F)(F)F)c(=O)c3cc2F)nc1N` [Example 40] stands 14.7 nM; under `C[C@@H](C[C@@H](F)Cn1ccc2cc(-c3ncc(C(O)C(F)(F)F)cn3)c(F)cc2c1=O)Nc1cn[nH]c(=O)c1C(F)(F)F` (stereo partly drawn) [Example 79], 5.05 nM.
Then `COc1cnc(-c2cc3ncn(C[C@H](F)C[C@H](C)Oc4cn[nH]c(=O)c4C(F)(F)F)c(=O)c3cc2F)nc1` (single isomer, unassigned) [Example 57], with 38.8 nM; and `C[C@@H](C[C@@H](F)Cn1ccc2cc(-c3ncc(C(F)CF)cn3)c(F)cc2c1=O)Nc1cn[nH]c(=O)c1C(F)(F)F` (stereo partly drawn) [Example 94], with 4.58 nM.
Take `C[C@@H](C[C@@H](F)Cn1ccc2cc(-c3ncc(C(F)F)cn3)c(F)cc2c1=O)Nc1cn[nH]c(=O)c1C(F)(F)F` (single isomer, unassigned) [Example 4]: the EC50 is 1.08 nM.
Under `C[C@@H](C[C@@H](F)Cn1ccc2cc(-c3ncc4c(n3)NC(=O)C4(C)C)c(F)cc2c1=O)Nc1cn[nH]c(=O)c1C(F)(F)F` [Example 89] stands 12 nM.
Then `C[C@@H](C[C@@H](F)Cn1ccc2cc(-c3ncc([C@H](F)CF)cn3)c(F)cc2c1=O)Nc1cn[nH]c(=O)c1C(F)(F)F` [Example 93], with 1000 nM.
Then `C[C@@H](C[C@@H](O)Cn1ccc2cc(-c3nc4ccccn4n3)c(F)cc2c1=O)Nc1cn[nH]c(=O)c1C(F)(F)F` (single isomer, unassigned) [Example 22], with 2.7 nM; and `C[C@@H](C[C@@H](F)Cn1ccc2cc(-c3ncc(C(C)(F)F)cn3)c(F)c(F)c2c1=O)Nc1cn[nH]c(=O)c1C(F)(F)F` [Example 98], with 0.97 nM.
As to `C[C@@H](CC(F)Cn1ccc2cc(-c3ncc(C(F)(F)F)cn3)c(F)cc2c1=O)Oc1cn[nH]c(=O)c1C(F)(F)F` (stereo partly drawn) [Example 11, 7-fluoro-2-((4S)-2-fluoro-4-((6-oxo-5-(trifluoromethyl)-1,6-dihydropyridazin-4-yl)oxy)pentyl)-6-(5-(trifluoromethyl)pyrimidin-2-yl)isoquinolin-1(2H)-one], the EC50 was found to be 3.61 nM.
Then `C[C@@H](C[C@@H](F)Cn1ccc2cc(-c3ncccn3)c(F)cc2c1=O)Nc1cn[nH]c(=O)c1C(F)(F)F` [Example 109], with 5.63 nM; and `C[C@@H](C[C@@H](F)Cn1ccc2cc(-c3ncc(S(C)(=O)=O)cn3)c(F)cc2c1=O)Oc1cn[nH]c(=O)c1C(F)(F)F` [Example 41], with 402 nM.
Then `C[C@@H](C[C@@H](F)Cn1ccc2cc(-c3ncc(OC(F)(F)CO)cn3)c(F)cc2c1=O)Nc1cn[nH]c(=O)c1C(F)(F)F` [Example 82], with 2.15 nM; and `C[C@@H](C[C@@H](F)Cn1ccc2cc(-c3ncc(C(C)(C)O)cn3)c(F)cc2c1=O)Nc1cn[nH]c(=O)c1C(F)(F)F` (single isomer, unassigned) [Example 8], with 3.55 nM; and `C[C@@H](C[C@@H](F)Cn1ccc2cc(-c3ccc(C(F)(F)F)cn3)c(F)cc2c1=O)Nc1cn[nH]c(=O)c1C(F)(F)F` [Example 76], with 2.59 nM.
For the compound `C[C@@H](C[C@@H](F)Cn1ccc2cc(-c3ncc4c(n3)NCCO4)c(F)cc2c1=O)Nc1cn[nH]c(=O)c1C(F)(F)F` [Example 113], the EC50 was 1.94 nM.
Under `Cc1cnc(-c2cc3ccn(C[C@H](F)C[C@H](C)Nc4cn[nH]c(=O)c4C(F)(F)F)c(=O)c3cc2F)nc1` [Example 110] stands 1.11 nM.
As to `C[C@@H](C[C@@H](F)Cn1cc(F)c2cc(-c3ncc(C(F)F)cn3)c(F)cc2c1=O)Nc1cn[nH]c(=O)c1C(F)(F)F` [Example 29], the EC50 worked out at 1.86 nM.
Under `C[C@@H](C[C@H](F)Cn1cc(F)c2cc(-c3ncc(C(F)(F)F)cn3)c(F)cc2c1=O)Oc1cn[nH]c(=O)c1C(F)(F)F` [Example 65] stands 2.85 nM.
